Laboratory results reported in US20240190971A1, “USE OF an anti-P-selectin antibody” (NOVARTIS AG, priority 2018, published 2024).

Tests used:
Gata1^low mice = conditions: mouse, in vivo
Protocol: Given the well described effects of inhibition of the TGF-β receptor 1 kinase on myelofibrosis in mouse models, the effects of the P-selectin inhibitor with those obtained with SB431542 are compared. In fact, contrary to inhibition of TGF-β signaling, inhibition of P-selectin has limited side effects and is therefore preferable to TGF-β inhibitors. […] Gata1^low mice are treated at 5-6 months of age (i.e. in the pre-MF stage) and analyzed at 10-12 months, an age when they are expected to have MF.
Gata1^low mice (8 mice per group) are treated with SB431542 according to the following scheme: • Group 1: Vehicle treated (2% v/v DMSO in H2O) (negative control) • Group 2: Mice receive SB431542 (60 μg/kg/day, cat no S4317-5GM, Sigma-Aldrich, St Louis, MO), as described (Spangrude G J et al, Stem Cells 2016; 34:67-82; Zingariello M et al, Blood 2013; […]
5-6 months old mice are treated daily for 5 days (Monday to Friday), then rested for 2 days and then treated again for 5 days. These treatments continue until the mice will reach 10-12 months of age. At that point they are sacrificed and analyzed for signs of progression to MF as described by Spangrude G J et al, Stem Cells 2016; 34:67-82; Zingariello M et al, Blood 2013; 121:3345-63. […]

JAK3 = JAK3 (Homo sapiens, UniProt P52333); conditions: at clinically relevant concentrations; cited from earlier work
JAK3, sequence (P52333 whole entry): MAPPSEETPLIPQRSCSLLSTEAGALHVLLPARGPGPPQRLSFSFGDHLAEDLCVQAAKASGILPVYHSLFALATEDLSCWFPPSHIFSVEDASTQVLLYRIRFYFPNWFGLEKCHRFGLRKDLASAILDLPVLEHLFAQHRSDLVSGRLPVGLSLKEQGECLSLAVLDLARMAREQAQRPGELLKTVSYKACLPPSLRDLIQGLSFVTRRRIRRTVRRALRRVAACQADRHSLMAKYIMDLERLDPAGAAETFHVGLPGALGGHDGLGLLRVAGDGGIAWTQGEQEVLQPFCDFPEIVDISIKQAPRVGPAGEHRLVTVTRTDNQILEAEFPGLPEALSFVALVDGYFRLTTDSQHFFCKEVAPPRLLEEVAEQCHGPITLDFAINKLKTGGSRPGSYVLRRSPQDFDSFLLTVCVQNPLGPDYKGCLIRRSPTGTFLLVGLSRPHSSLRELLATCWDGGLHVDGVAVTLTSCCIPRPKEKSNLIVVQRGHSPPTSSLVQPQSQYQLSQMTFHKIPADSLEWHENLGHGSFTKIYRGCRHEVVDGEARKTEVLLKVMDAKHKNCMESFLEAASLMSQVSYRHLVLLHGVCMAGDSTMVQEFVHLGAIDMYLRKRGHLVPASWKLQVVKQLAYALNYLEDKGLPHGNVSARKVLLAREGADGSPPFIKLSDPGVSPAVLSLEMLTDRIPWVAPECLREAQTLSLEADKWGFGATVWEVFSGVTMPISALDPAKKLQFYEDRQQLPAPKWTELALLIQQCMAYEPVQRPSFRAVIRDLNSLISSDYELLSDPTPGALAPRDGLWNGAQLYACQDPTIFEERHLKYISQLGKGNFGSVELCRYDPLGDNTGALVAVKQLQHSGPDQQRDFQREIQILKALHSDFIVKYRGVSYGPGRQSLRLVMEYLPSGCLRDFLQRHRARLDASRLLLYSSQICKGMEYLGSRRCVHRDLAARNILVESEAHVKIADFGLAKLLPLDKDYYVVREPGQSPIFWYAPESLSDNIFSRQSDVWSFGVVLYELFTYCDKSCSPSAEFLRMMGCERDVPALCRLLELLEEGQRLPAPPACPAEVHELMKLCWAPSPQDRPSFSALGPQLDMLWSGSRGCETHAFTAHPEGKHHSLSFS

[1] = system: broad panel of 26 kinases; conditions: tested at 200 nM; cited from earlier work
P-selectin = molecular target: T1, P-selectin (Homo sapiens, UniProt P16109); conditions: cited from earlier work
T1 sequence (P16109 42-830): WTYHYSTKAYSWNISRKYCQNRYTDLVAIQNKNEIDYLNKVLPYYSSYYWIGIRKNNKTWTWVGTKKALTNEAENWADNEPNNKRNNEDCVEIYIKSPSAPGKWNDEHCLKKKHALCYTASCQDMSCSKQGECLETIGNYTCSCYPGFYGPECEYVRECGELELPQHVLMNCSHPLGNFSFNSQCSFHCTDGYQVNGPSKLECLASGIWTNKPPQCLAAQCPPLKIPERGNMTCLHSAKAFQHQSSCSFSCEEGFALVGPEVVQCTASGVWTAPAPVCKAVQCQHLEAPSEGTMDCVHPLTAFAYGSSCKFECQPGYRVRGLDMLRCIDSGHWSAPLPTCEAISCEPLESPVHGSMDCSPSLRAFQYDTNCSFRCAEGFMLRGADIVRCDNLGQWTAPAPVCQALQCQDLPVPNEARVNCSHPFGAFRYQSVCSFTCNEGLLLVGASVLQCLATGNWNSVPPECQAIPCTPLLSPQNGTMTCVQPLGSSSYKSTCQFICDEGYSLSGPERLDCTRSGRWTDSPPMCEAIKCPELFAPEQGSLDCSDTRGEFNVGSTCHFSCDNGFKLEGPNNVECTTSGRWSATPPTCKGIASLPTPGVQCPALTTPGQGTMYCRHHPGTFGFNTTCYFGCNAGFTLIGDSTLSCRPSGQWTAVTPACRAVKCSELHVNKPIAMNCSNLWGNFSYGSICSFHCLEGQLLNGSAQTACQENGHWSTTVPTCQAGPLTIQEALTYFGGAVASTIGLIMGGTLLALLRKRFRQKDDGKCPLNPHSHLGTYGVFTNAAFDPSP

## NC(=O)c1ccc(-c2nc(-c3ccc4c(c3)OCO4)c(-c3ccccn3)[nH]2)cc1 [SB431542]
Gata1^low mice
  toxicity profile: poor toxicity profile (increased osteosclerosis)

## N#CC[C@H](C1CCCC1)n1cc(-c2ncnc3[nH]ccc23)cn1 [ruxolitinib, (R)-3-(4-(7H-pyrrolo[2,3-d]pyrimidin-4-yl)-1H-pyrazol-1-yl)-3-cyclopentylpropanenitrile]
JAK3
  inhibition of JAK3: does not inhibit
[1]
  inhibition: < 30%

B1: crizanlizumab: humanized monoclonal antibody targeted towards P-selectin, blocks its interaction with PSGL-1 (antibody)
heavy: QVQLVQSGAEVKKPGASVKVSCKVSGYTFTSYDINWVRQAPGKGLEWMGWIYPGDGSIKYNEKFKGRVTMTVDKSTDTAYMELSSLRSEDTAVYYCARRGEYGNYEGAMDYWGQGTLVTVSSASTKGPSVFPLAPCSRSTSESTAALGCLVKDYFPEPVTVSWNSGALTSGVHTFPAVLQSSGLYSLSSVVTVTSSNFGTQTYTCNVDHKPSNTKVDKTVERKCCVECPPCPAPPVAGPSVFLFPPKPKDTLMISRTPEVTCVVVDVSHEDPEVQFNWYVDGMEVHNAKTKPREEQFNSTFRVVSVLTVVHQDWLNGKEYKCAVSNKGLPAPIEKTISKTKGQPREPQVYTLPPSREEMTKNQVSLTCLVKGFYPSDIAVEWESNGQPENNYKTTPPMLDSDGSFFLYSKLTVDKSRWQQGNVFSCSVMHEALHNHYTQKSLSLSPGK
light: DIQMTQSPSSLSASVGDRVTITCKASQSVDYDGHSYMNWYQQKPGKAPKLLIYAASNLESGVPSRFSGSGSGTDFTLTISSLQPEDFATYYCQQSDENPLTFGGGTKVEIKRTVAAPSVFIFPPSDEQLKSGTASVVCLLNNFYPREAKVQWKVDNALQSGNSQESVTEQDSKDSTYSLSSTLTLSKADYEKHKVYACEVTHQGLSSPVTKSFNRGEC
P-selectin
  blocking of P-selectin interaction with PSGL-1: blocks its interaction with P-selectin glycoprotein ligand 1 (PSGL-1)
  dissociation of already formed P-selectin/PSGL-1 complexes: dissociates P-selectin/PSLG-1 complexes that have already formed
